Assay [1] concerns the target T1, prostaglandin H2 synthase form 2 (Ovis aries, UniProt P79208).
T1 construct: Prostaglandin H2 synthase form 2, isolated from sheep placenta, contained nitrated tyrosine residues; purchased Cayman Co. (Ann Arbor, Mich.); host or cells: sheep placenta (tissue-purified)
T1 sequence (P79208 17-603): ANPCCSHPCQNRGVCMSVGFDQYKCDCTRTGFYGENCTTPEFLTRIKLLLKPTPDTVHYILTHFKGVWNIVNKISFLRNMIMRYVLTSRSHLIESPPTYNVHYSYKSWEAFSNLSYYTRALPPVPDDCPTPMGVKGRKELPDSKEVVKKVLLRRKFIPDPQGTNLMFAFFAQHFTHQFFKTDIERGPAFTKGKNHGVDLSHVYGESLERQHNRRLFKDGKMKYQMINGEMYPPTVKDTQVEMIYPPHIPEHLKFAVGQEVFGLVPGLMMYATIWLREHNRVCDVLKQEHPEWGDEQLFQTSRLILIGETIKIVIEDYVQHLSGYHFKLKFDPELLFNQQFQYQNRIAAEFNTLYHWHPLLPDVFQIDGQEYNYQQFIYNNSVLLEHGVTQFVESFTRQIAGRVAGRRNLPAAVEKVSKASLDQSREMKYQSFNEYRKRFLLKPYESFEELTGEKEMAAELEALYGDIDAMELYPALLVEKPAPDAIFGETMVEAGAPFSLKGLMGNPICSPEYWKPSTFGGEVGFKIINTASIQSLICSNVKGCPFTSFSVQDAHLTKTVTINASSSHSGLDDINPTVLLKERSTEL
Briefly: Peroxynitrite-induced nitration of prostaglandin H2 synthase form 2, Western blot with anti-nitrotyrosine antibodies. The settings on record: for nitration of tyrosine residues of prostaglandin H2 synthase form 2 in the presence of reducing agent: 16 μg sheep PGHS-2, 450 μM peroxynitrite, 31 μM GSH. The class given is biochemical, sheep. The protocol:
(§1) SDS-PAGE was carried out on 10% or 15% gels, according to Laemmli (18), with or without the addition of β-mercaptoethanol in gel loading buffer before heat denaturization of proteins. The separated proteins were electroblotted onto a […] membrane and Western blot analyses were carried out using alkaline phosphatase system as previously described (19,20). Visualization of bands was accomplished by incubation with a mixture of 5-bromo-4-chloro-3-indolylphosphatate p-toluidine and nitrobluetetrazolium. Western blot analyses were also carried out using horseradish peroxidase or alkaline phosphatase system with […] substrates.

Assay [2] deals with T1, prostaglandin H2 synthase form 2. Briefly: Peroxynitrite-induced dimerization of prostaglandin H2 synthase form 2, SDS-PAGE without β-mercaptoethanol and Western blot. The class given is biochemical, sheep. The following applies: 450 μM peroxynitrite. On the procedure: as §1
Background: A western blot detects proteins with antibodies after separation by electrophoresis.

Assay [3] has as its target T2, prostaglandin H2 synthase form 1 (Ovis aries, UniProt P05979).
T2 construct: sheep prostaglandin H2 synthases form 1 and 2 obtained from ram seminal vesicle and placenta, respectively; purchased Cayman Co. (Ann Arbor, Mich.); host or cells: ram seminal vesicle (tissue-purified)
T2 sequence (P05979 25-600): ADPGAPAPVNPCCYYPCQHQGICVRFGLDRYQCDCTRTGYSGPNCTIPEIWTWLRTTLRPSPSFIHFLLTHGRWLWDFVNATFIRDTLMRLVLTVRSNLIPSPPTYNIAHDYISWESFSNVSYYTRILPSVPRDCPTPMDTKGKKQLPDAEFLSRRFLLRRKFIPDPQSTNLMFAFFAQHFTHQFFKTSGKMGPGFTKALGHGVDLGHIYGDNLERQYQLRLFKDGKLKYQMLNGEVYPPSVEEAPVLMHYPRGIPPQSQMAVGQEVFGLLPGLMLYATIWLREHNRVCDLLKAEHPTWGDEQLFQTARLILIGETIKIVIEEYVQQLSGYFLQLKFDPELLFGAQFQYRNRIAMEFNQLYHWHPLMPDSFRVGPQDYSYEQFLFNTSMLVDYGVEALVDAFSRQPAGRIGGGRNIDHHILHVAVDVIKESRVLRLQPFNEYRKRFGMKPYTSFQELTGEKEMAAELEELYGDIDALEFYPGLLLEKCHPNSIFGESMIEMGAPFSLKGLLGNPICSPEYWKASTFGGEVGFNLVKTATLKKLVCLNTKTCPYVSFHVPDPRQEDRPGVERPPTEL
Description: Prostaglandin H2 synthase activity analysis by TLC ([14C]arachidonic acid conversion). Type of assay: biochemical, sheep. The settings on record: pretreated at 37° C. for 30 minutes; 25 μM [14C]arachidonic acid. On the procedure: (§2) Prostaglandin H2 synthase activity analysis of sheep prostaglandin H2 synthases form 1 and 2 obtained from ram seminal vesicle and placenta, respectively, were carried out as previously described (21) with or without pretreatment with peroxynitrite. Briefly, purified or partly purified sheep prostaglandin H2 synthases form 1 (9 units) and form 2 (12 units) were pretreated with or without peroxynitrite at 37° C. for 30 minutes. [^14C]arachidonic acid (AA) (25 μM) (NEN, specific activity 53 mCi/mmol) was added to the prostaglandin H2 synthase form 1 or form 2 in 0.2 ml of PBS, and incubated at 37° C. for 10 minutes. Prostaglandin H2 synthase metabolites in the medium were extracted with ethyl acetate, dried down in a centrifugal evaporator, spotted on a silica TLC plate and separated using A-9 solvent (ethyl acetate:trimethylpentane:acetic acid:water, 55:25:10:50). The TLC assay measured products resulting from both the cyclooxygenase and peroxidase activities of prostaglandin H2 synthase. The immediate product of the prostaglandin H2 synthase reaction, prostaglandin H2, was unstable and broke down in a non-enzymatic fashion to a variety of prostaglandins which were detectable by TLC. The Rf pattern in the A-9 solvent system of the break down products of prostaglandin H2 produced by ram seminal vesicle prostaglandin H2 synthase form 1 was well characterized. […]

For assay [4], the target named is T1, prostaglandin H2 synthase form 2. Described as above. Type of assay: biochemical, sheep. The settings on record: pretreated at 37° C. for 30 minutes; 25 μM [14C]arachidonic acid. The protocol:
as §2

Assay [5] relates to cytochrome c. Briefly: Nitration and polymerization of cytochrome c, SDS-PAGE and anti-nitrotyrosine Western blot. The class given is biochemical. On the procedure:
as §1
Cytochrome c (40 μg) was incubated with 0.5 mM (FIG. 1, Panel A, lane 1) […] deactivated (a negative control, FIG. 1, Panel A, lane 2) peroxynitrite in 100 mM phosphate buffer, pH 7.4. Deactivated peroxynitrite was produced by incubation of 0.5 mM peroxynitrite in buffer for 5 minutes prior to addition to the reaction mixture. […]
Cytochrome c (40 μg) was incubated with increasing concentrations (0.032 to 0.13 mM) (FIG. 1, Panel B) of peroxynitrite in 100 mM phosphate buffer, pH 7.4. […] The cytochrome c monomer band (14 kDa) shown in Western blot analysis in FIG. 1, Panel B and those obtained from two other experiments were quantitated using Molecular Dynamics Personal Densitometer (FIG. 1, Panel C).

The subject of assay [6] is cytochrome c. Briefly: Nitration and polymerization of cytochrome c by NO donor during prostaglandin H2 synthase form 2 metabolism of arachidonic acid. The class given is biochemical. The settings on record: 300 μM DETA NONOate with ovine PGHS-2 and arachidonic acid (590 μM), 37° C., 30 minutes. On the procedure: Western blot analysis was carried out with monoclonal antibodies produced against nitrotyrosine using the alkaline phosphatase system;
Reaction mixture in 100 mM phosphate buffer, pH 7.4, (total volume, 200 μl) was incubated at 37° C. for 30 minutes. The reaction mixture contained a combination of cytochrome c (40 μg), ovine prostaglandin H2 synthase form 2 (104 units), arachidonic acid (590 μM), epinephrine (31 μg), hematin (1 μM), and DETA NONOate, an NO donor, (300 μM) as indicated in FIG. 2. After incubation, the proteins were separated by SDS-PAGE followed by Western blot analysis with an alkaline phosphatase system using monoclonal antibodies produced against nitrotyrosine.

Structures are written as SMILES.

Take `N[C@@H](CCC(=O)N[C@@H](CS)C(=O)NCC(=O)O)C(=O)O` [glutathione]: the “nitration of tyrosine residues of prostaglandin H2 synthase form 2 in the presence of reducing agent” value in assay [1] was “inhibited”; in assay [1] (listed as GSH), “not nitrated”. Further, the “dimerization of prostaglandin H2 synthase form 2 in the presence of reducing agent” value in assay [2] (31 μM GSH, no β-mercaptoethanol in loading buffer) was “ran as a monomer”.

As for `O=NOO` [peroxynitrite], the “nitration of tyrosine residues of prostaglandin H2 synthase form 2 by oxidant” value in assay [1] (450 μM peroxynitrite, no GSH) is “increased”. In addition, the “dimerization of prostaglandin H2 synthase form 2 by oxidant” value in assay [2] (no GSH, no β-mercaptoethanol) is “migrated both as a monomer (70 kDa) and a dimer (140 kDa)”. In addition, the “catalytic activity of prostaglandin H2 synthase form 1 after treatment” value in assay [3] was “abolished”. The “catalytic activity of prostaglandin H2 synthase form 2 after treatment” value in assay [4] was “abolished”. In the assay with cytochrome c [5] (0.5 mM peroxynitrite, 100 mM phosphate buffer, pH 7.4), the “nitration and polymerization of cytochrome c” value is “nitrated and polymerized to 30 kDa, 45 kDa and higher molecular mass”. Moreover, the “concentration dependence of nitration and polymerization of cytochrome c” value with cytochrome c [5] (0.032 to 0.13 mM peroxynitrite) is “nitrated and polymerized in a dose-dependent manner”.

For the compound `NCCN(CCN)/[N+]([O-])=N/O` [DETA NONOate, diethylenetetraamine (DETA) NONOate], the “nitration and polymerization of cytochrome c” value in the assay with cytochrome c [6] was “nitrated and polymerized”.

Source of the values: patent US6812212B2, “Assessment of oxidant stress in vitro and in vivo” (priority 2000, dated 2004).
